One series concerns HL-60 cells. Nature of the series: Phagocytosis of HL-60 cells by human macrophages. Type of series: cell-based. The protocol: The objective of this study was to determine the effect of Calcium salt of compound of formula (I) and azacitidine mediated induction of phagocytosis of HL-60 cells by human macrophages. Different doses of Calcium salt of compound of formula (I) were tested to determine increase in phagocytosis of HL-60 cells (with or without azacitidine treatment) by macrophages isolated from healthy human volunteers.
Preparation of test compound: 20 mM stock concentration of Calcium salt of compound of formula (I) was prepared. The stock was further diluted to get intermediate and final concentrations. The final assay volume was 200 μL. Medium used for dilution is RPMI media. Four concentrations of Calcium salt of compound of formula (I) ranging from 10 μM to 0.3 μM were used in the assay.
Preparation of macrophage culture media: 5 mL of FBS and 10 μL of recombinant human M CSF (100 μg/mL stock) was added to 45 mL of RPMI to prepare macrophage culture media as and when required.
Preparation of HL-60 cell culture media: 10 mL of FBS was added to 40 mL of IMDM media to prepare HL-60 cell culture media.
Preparation of working stock of azacitidine: A 20 mM stock of azacitidine prepared by adding 172.1 μL of DMSO in 0.84 mg of azacitidine. 4.5 μL of 20 mM stock of azacitidine was added to 25.5 μL of DMSO to prepare 3 mM azacitidine working stock solution. This is 1000× of the desired final treatment concentration of 3 μM.
Preparation of working stock of Mouse IgG1 Kappa isotype control: Molarity of mouse IgG1 kappa isotype control antibody was calculated using online molarity calculator (https://www.graphpad.com/quickcalcs/Molarityform.cfm). Formula weight of antibody was 150 KDa. Molarity of isotype control antibody stock was 6.6667 μM. 3 μL of isotype control antibody stock solution was added to 197 μL RPMI media to prepare 100 nM of working stock solution. This is 10× stock of the required conc of isotype control. Preparation of working stock of anti-human CD47 antibody Molarity of anti-human CD47 antibody was calculated using online molarity calculator (https://www.graphpad.com/quickcalcs/Molarityform.cfm). Formula weight of anti-Human CD47 antibody was 150 KDa. Molarity of anti-human CD47 antibody stock was 6.6667 μM. This stock of anti-human CD47 antibody was further diluted to get intermediate and final concentrations as described below. 3 μL of anti-human CD47 antibody stock solution was added to 197 μL RPMI media to prepare 100 nM of working stock solution (10×).
Preparation of test system: 90 mL whole blood from healthy volunteer was collected in a Na-Heparin vacutainer and stored at room temperature until use. PBMCs isolated from blood were used for isolating monocytes and to differentiate them into macrophages for the phagocytosis assay.
90 mL blood was collected from healthy volunteer in NA-Heparin vacutainer. PBMCs were isolated and were resuspended in 50 mL serum free RPMI 1640 media. For isolation of monocytes, 10 mL of PBMC cell suspension was seeded in each T75 culture flask (total 5 flasks) and were cultured at 37 degree for 2 hours. Monocytes were attached to culture flask by adherence method. Media from these flasks was discarded and attached monocytes were washed once with prewarmed PBS. Monocytes were further cultured in 10 mL of macrophage culture media and were differentiated to macrophages for 10 days. Media from each flask was changed every alternate day or after every 2 days with fresh macrophage culture media.
A vial of HL-60 cell stock was taken from liquid nitrogen. Cells were thawed in a water bath at 37° C. till the last crystal is thawed. Cells were transferred to 50 mL of culture media in a falcon tube and centrifuged at 800 rpm for 8 minutes. Cells were further cultured in 20 mL of HL-60 cell culture media in T75 flasks at 37° C. at 5% CO2 for 24 hrs. After 24 hrs, the cells were centrifuged at 800 rpm for 5 mins. The cells were cultured in 25 mL of complete media at 37° C. and 5% CO2 for 2 more days. […]

A short description of series [1]: Phase I/IIa open label dose-escalation safety study in subjects with relapsed advanced malignancies. Type of series: in vivo, human. Conditions: for Grade 3 or 4 toxicities / adverse events: correlated with the Test Product. An excerpt: Study objective: To evaluate the overall safety profile of the compound of formula (I) in human subjects with relapsed advanced malignancies.
The following table summarizes the (final) study protocol.

In series [2] the test system is Chemokines (MCP-3, MCP-1, MIP-1α & MIP-1β) and Cytokines (IL-12p40, IL-1A, IL-8, TNFα & IL-6). Nature of the series: Pharmacodynamic biomarkers in the Phase I/IIa study. Type of series: in vivo, human. The conditions noted are these: all cohorts, as a result of treatment. An excerpt:
Chemokines are known for their role in recruitment of macrophages to sites of infection, damage, or tumors for the purpose of phagocytosis and healing. An upregulation of chemokines followed by administration of the compound of formula (I) is indicative of the CD-47 inhibition mediated enhanced phagocytosis. Disruption of the IL-6-STAT3 axis is known to reduce the ability of tumor cells to escape phagocytosis (Jing Chen et al. Oncoimmunology 2019, VOL. 8, NO. 11, e1652540). A drop in IL-6 level is also indicative of macrophage activation.

[3] abbreviates: Azacitidine 3 μM alone, HL-60 cells treated 72 hrs.
[4] abbreviates: all subjects, across dose levels 25-400 mg BID oral.
[5] abbreviates: 0.3 μM, DMSO treated HL-60 cells.
[6] abbreviates: 10 μM, DMSO treated HL-60 cells, normalized to 10 nM anti-human CD47.

Each structure is given as a SMILES string. “Also recorded” adds a separate entry of the source. Counter-ions that a name gives are not always drawn.

In the case of `Nc1ncn([C@@H]2O[C@H](CO)[C@@H](O)[C@H]2O)c(=O)n1` [Azacitidine, 4-Amino-1-β-D-ribofuranosyl-s-triazin-2(1H)-one], the “increase in phagocytosis of HL-60 cells” value in the series with HL-60 cells (3 μM azacitidine treatment of HL-60 cells alone) turned out to be 71.26%. Also, in the series on HL-60 cells (setting [3]), the “% Normalized phagocytosis Replicate 1” value is given as 76.25% and the “% Normalized phagocytosis Replicate 2” value turned out to be 66.28%.

Turning to `N=C(N)NCCC[C@H](NC(=O)N1CCC[C@@H]1C(=O)O)c1nc([C@@H](N)CCC(=O)O)no1` [Compound of formula (I)], the “severity of reported non-serious adverse events” value in series [1] (all cohorts, NCI CTCAE v 5.0) is reported as “mild to moderate”. Besides, the “Grade 3 or 4 toxicities / adverse events” value in series [1] (all cohorts) is “no grade 3 or grade 4 adverse events”. The “Grade 3 or 4 toxicities / adverse events” value in series [1] (all cohorts, listed as compound of formula (I)) was “no grade 3 or grade 4 adverse events”. Further, in series [1] (setting [4]), the “DLT (Dose Limiting Toxicity)” value is “without any DLT” and the hemolytic anemia result is reported as “No hemolytic anemia was reported in any subject; also recorded: no hemolytic anemia in any of the tested subjects”. Moreover, in series [1] (all subjects, across dose levels 25-400 mg BID oral, up to 4 cycles of 28 days), the tolerability of treatment result is reported as “well tolerated”. Besides, the hemolytic anemia result in series [1] (all subjects, across dose levels 25-400 mg BID oral, listed as compound of formula (I)) was “no hemolytic anemia in any of the tested subjects”. Also, the “safe and tolerable total daily dose” value in series [1] (oral, total daily dose) is on record as at most 800 mg. For the same compound, in series [1] (per oral BID), the “safe and tolerable dose” value is at most 400 mg. For the same compound, in series [1] (reporting period), the “Serious Adverse Reactions (SAR's) or Suspected Unexpected Serious Adverse Reactions (SUSAR's)” value is on record as “No Serious Adverse Reactions (SAR's) or Suspected Unexpected Serious Adverse Reactions (SUSAR's) were reported” and the “dose reductions due to treatment-related AEs” value is reported as “no dose reductions”. In addition, in series [2], the “IL12p40, TNFα, MCP-1, MIP-1α, MIP-1β and MCP-3 levels” value was “a trend towards upregulation”; the “IL-6 and IL-1α levels” value was “a trend towards downregulation”.

With `N=C(N)NCCC[C@H](NC(=O)N1CCCC1C(=O)O)c1nc([C@@H](N)CCC(=O)O)no1` (stereo partly shown) [Calcium salt of compound of formula (I)], the “% Normalized phagocytosis Replicate 1” value in the series on HL-60 cells (setting [5]) is on record as −1.92%; in the series on HL-60 cells (1 μM, DMSO treated HL-60 cells), 19.54%; in the series with HL-60 cells (3 μM, DMSO treated HL-60 cells) it was −10.34%; in the series with HL-60 cells (setting [6]) it was 62.35%. Moreover, the “% Normalized phagocytosis Replicate 2” value in the series with HL-60 cells (setting [5]) was −10.34%; in the series with HL-60 cells (1 μM, DMSO treated HL-60 cells), 4.98%; in the series on HL-60 cells (3 μM, DMSO treated HL-60 cells), −14.94%; in the series with HL-60 cells (setting [6]), 47.13%. The “increase in phagocytosis of HL-60 cells” value with HL-60 cells (10 μM alone) was 54.79%. In series [1] (all cohorts), the “Grade 3 or 4 toxicities / adverse events” value is recorded as “No Grade 3 or 4 toxicities”. Also, the “causality assessment of the serious adverse events” value in series [1] (by principal investigators and study sponsor) is reported as “Not Related”. For the same compound, in series [1] (one in cohort 2 (50 mg BID), one in cohort 3 (100 mg BID)), the “serious adverse events reported” value is on record as “Two serious adverse events were reported”.

The values above are taken from US20250339404A1, “COMBINATION THERAPY USING A CD47-SIRP alpha BLOCKING AGENT AND AZACITIDINE” (Aurigene Oncology Limited, priority 2024, published 2025).
